Assay results: ChEMBL document CHEMBL4706583, “2-Anilinoquinoline based arylamides as broad spectrum anticancer agents with B-RAF/C-RAF kinase inhibitory effects: Design, synthesis, in vitro cell-based and oncogenic kinase assessments” (Eur J Med Chem, 2020)
Active and inactive are the calls of the source. The rule behind the calls is not given here.

Key:
HCT-116 [1] = test: Induction of apoptosis in human HCT-116 cells assessed as early apoptotic cells at 1.25 uM measured after 24 hrs by Annexin-V Alexa Fluor488/propidium iodide staining based flow cytometry (reference value: 6.3%); assay type: functional
RPMI-8226 = test: Growth inhibition of human RPMI-8226 cells measured after 48 hrs by SRB assay; assay type: functional
HCT-116 [2] = test: Cell cycle arrest in human HCT-116 cells assessed as accumulation at S phase at 1.25 uM measured after 48 hrs by propidium iodide staining based flow cytometry (reference value: 10.4%); assay type: functional
Sus scrofa = organism: Sus scrofa; test: Induction of porcine brain tubulin polymerization at 10 uM measured at 30 secs interval for 60 mins by fluorescence assay; assay type: tissue-based
ACHN = test: Growth inhibition of human ACHN cells measured after 48 hrs by SRB assay; assay type: functional
NCI-H23 = test: Growth inhibition of human NCI-H23 cells measured after 48 hrs by SRB assay; assay type: functional
HCT-116 [3] = test: Cell cycle arrest in human HCT-116 cells assessed as accumulation at G1/G0 phase at 5 uM measured after 48 hrs by propidium iodide staining based flow cytometry (reference value: 52.2%); assay type: functional
[4] = Cytotoxicity against human L132 cells assessed as cell viability at 3 uM measured after 48 hrs by EZ-Cytox assay relative to control; assay type: cell-based; conditions: read-out: Activity
[5] = target: Macrophage colony-stimulating factor 1 receptor (Homo sapiens) (UniProt P07333); test: Inhibition of human FMS at 10 uM using poly[Glu:Tyr] (4:1) as substrate in presence of [gamma-33P]ATP by scintillation counting method relative to control
HCT-116 [6] = test: Cell cycle arrest in human HCT-116 cells assessed as accumulation at S phase at 5 uM measured after 48 hrs by propidium iodide staining based flow cytometry (reference value: 10.4%); assay type: functional
NCI-H226 = test: Growth inhibition of human NCI-H226 cells measured after 48 hrs by SRB assay; assay type: functional
[7] = Cytotoxicity against African green monkey Vero cells assessed as cell viability at 10 uM measured after 48 hrs by EZ-Cytox assay relative to control; assay type: cell-based; conditions: chlorocebus sabaeus, read-out: Activity
HCT-116 [8] = test: Cell cycle arrest in human HCT-116 cells assessed as accumulation at G1/G0 phase at 1.25 uM measured after 48 hrs by propidium iodide staining based flow cytometry (reference value: 52.2%); assay type: functional
[9] = system: Serine/threonine-protein kinase B-raf (Homo sapiens), P15056 [V600E]; test: Inhibition of human BRAF V600E mutant at 10 uM using MEK1 (K97R) as substrate in presence of [gamma-33P]ATP by scintillation counting method relative to control
HCT-15 = test: Growth inhibition of human HCT-15 cells measured after 48 hrs by SRB assay; assay type: functional
[10] = target: Epithelial discoidin domain-containing receptor 1 (Homo sapiens, UniProt Q08345); test: Inhibition of human DDR1 at 10 uM using KKSRGDYMTMQIG as substrate in presence of [gamma-33P]ATP by scintillation counting method relative to control
OVCAR-4 = test: Growth inhibition of human OVCAR-4 cells measured after 48 hrs by SRB assay; assay type: functional
HCT-116 [11] = test: Induction of apoptosis in human HCT-116 cells assessed as necrotic cells at 1.25 uM measured after 48 hrs by Annexin-V Alexa Fluor488/propidium iodide staining based flow cytometry (reference value: 7.7%); assay type: functional
HCT-116 [12] = test: Cell cycle arrest in human HCT-116 cells assessed as accumulation at S phase at 2.5 uM measured after 48 hrs by propidium iodide staining based flow cytometry (reference value: 10.4%); assay type: functional
HCT-116 [13] = test: Cell cycle arrest in human HCT-116 cells assessed as accumulation at G2/M phase at 2.5 uM measured after 48 hrs by propidium iodide staining based flow cytometry (reference value: 20.4%); assay type: functional
A498 = test: Growth inhibition of human A498 cells measured after 48 hrs by SRB assay; assay type: functional
RXF 393 = test: Growth inhibition of human RXF 393 cells measured after 48 hrs by SRB assay; assay type: functional
HL-60(TB) = test: Growth inhibition of human HL-60(TB) cells measured after 48 hrs by SRB assay; assay type: functional
NCI-H522 = test: Growth inhibition of human NCI-H522 cells measured after 48 hrs by SRB assay; assay type: functional
HCT-116 [14] = test: Cell cycle arrest in human HCT-116 cells assessed as accumulation at G2/M phase at 1.25 uM measured after 48 hrs by propidium iodide staining based flow cytometry (reference value: 20.4%); assay type: functional
[15] = target: High affinity nerve growth factor receptor (Homo sapiens, UniProt P04629); test: Inhibition of human TRKA at 10 uM using poly[Glu:Tyr] (4:1) as substrate in presence of [gamma-33P]ATP by scintillation counting method relative to control
HCT-116 [16] = test: Cell cycle arrest in human HCT-116 cells assessed as accumulation at sub-G1 phase at 2.5 uM measured after 48 hrs by propidium iodide staining based flow cytometry (reference value: 17%); assay type: functional
[17] = Cytotoxicity against African green monkey Vero cells assessed as cell viability at 1 uM measured after 48 hrs by EZ-Cytox assay relative to control; assay type: cell-based; conditions: chlorocebus sabaeus, read-out: Activity
HCT-116 [18] = test: Cell cycle arrest in human HCT-116 cells assessed as accumulation at G2/M phase at 5 uM measured after 48 hrs by propidium iodide staining based flow cytometry (reference value: 20.4%); assay type: functional
CCRF-CEM = test: Growth inhibition of human CCRF-CEM cells measured after 48 hrs by SRB assay; assay type: functional
HCT-116 [19] = test: Cell cycle arrest in human HCT-116 cells assessed as accumulation at G2/M phase at 2.5 uM measured after 24 hrs by propidium iodide staining based flow cytometry (reference value: 19.2%); assay type: functional
HCT-116 [20] = test: Cell cycle arrest in human HCT-116 cells assessed as accumulation at S phase at 2.5 uM measured after 24 hrs by propidium iodide staining based flow cytometry (reference value: 7.2%); assay type: functional
HCT-116 [21] = test: Cell cycle arrest in human HCT-116 cells assessed as accumulation at G1/G0 phase at 1.25 uM measured after 24 hrs by propidium iodide staining based flow cytometry (reference value: 65%); assay type: functional
HCT-116 [22] = test: Cell cycle arrest in human HCT-116 cells assessed as accumulation at sub-G1 phase at 1.25 uM measured after 24 hrs by propidium iodide staining based flow cytometry (reference value: 8.7%); assay type: functional
HCT-116 [23] = test: Cell cycle arrest in human HCT-116 cells assessed as accumulation at G1/G0 phase at 2.5 uM measured after 24 hrs by propidium iodide staining based flow cytometry (reference value: 65%); assay type: functional
HCT-116 [24] = test: Cell cycle arrest in human HCT-116 cells assessed as accumulation at S phase at 1.25 uM measured after 24 hrs by propidium iodide staining based flow cytometry (reference value: 7.2%); assay type: functional
HCT-116 [25] = test: Cell cycle arrest in human HCT-116 cells assessed as accumulation at sub-G1 phase at 5 uM measured after 24 hrs by propidium iodide staining based flow cytometry (reference value: 8.7%); assay type: functional

Chain of High affinity nerve growth factor receptor (P04629 33-796 limits assumed): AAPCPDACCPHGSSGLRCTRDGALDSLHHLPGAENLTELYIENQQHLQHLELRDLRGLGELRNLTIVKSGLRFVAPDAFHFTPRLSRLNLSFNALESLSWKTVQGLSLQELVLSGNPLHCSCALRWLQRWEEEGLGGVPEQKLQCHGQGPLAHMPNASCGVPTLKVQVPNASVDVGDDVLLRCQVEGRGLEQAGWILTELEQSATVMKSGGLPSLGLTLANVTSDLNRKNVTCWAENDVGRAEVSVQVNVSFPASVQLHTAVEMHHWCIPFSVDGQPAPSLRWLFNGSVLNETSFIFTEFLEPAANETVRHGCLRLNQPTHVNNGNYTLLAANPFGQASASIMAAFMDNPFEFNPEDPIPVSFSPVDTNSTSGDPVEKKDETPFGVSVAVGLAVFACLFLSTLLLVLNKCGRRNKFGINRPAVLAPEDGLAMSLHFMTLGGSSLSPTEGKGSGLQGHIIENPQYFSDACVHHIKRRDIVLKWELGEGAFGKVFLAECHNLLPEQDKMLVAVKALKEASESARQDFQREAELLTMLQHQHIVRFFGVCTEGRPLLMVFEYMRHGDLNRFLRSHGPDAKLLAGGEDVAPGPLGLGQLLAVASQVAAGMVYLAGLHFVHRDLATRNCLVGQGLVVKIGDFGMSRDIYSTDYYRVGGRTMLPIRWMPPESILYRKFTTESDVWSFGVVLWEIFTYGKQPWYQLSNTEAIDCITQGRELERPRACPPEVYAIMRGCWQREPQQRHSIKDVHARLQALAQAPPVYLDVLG
Chain of Macrophage colony-stimulating factor 1 receptor (Homo sapiens) (P07333 whole entry): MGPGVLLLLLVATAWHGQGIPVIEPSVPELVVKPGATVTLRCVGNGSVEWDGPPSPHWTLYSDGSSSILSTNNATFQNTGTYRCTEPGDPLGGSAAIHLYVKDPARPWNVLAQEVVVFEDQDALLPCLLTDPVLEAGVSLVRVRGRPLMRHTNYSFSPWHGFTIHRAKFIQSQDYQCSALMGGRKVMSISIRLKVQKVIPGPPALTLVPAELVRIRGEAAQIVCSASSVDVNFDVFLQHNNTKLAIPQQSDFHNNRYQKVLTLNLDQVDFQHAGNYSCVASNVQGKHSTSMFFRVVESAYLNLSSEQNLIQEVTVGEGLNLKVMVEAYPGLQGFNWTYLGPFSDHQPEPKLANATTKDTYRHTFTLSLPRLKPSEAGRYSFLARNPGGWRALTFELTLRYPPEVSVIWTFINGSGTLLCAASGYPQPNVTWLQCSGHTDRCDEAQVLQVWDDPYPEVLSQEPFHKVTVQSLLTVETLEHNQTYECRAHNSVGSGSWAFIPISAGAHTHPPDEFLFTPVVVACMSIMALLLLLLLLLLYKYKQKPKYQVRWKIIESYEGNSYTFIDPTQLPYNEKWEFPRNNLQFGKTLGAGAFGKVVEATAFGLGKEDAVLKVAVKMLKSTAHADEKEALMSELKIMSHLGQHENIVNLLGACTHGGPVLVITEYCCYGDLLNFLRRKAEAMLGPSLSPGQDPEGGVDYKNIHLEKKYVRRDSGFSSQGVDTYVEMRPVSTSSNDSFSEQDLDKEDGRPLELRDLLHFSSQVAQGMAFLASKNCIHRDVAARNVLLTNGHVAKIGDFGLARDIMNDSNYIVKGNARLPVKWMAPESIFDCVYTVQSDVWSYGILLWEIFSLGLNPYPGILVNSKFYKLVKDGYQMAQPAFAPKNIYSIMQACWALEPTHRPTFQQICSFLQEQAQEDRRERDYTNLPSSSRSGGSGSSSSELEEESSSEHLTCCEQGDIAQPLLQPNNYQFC
Chain of Epithelial discoidin domain-containing receptor 1 (Q08345 whole entry, the tested form may be a part): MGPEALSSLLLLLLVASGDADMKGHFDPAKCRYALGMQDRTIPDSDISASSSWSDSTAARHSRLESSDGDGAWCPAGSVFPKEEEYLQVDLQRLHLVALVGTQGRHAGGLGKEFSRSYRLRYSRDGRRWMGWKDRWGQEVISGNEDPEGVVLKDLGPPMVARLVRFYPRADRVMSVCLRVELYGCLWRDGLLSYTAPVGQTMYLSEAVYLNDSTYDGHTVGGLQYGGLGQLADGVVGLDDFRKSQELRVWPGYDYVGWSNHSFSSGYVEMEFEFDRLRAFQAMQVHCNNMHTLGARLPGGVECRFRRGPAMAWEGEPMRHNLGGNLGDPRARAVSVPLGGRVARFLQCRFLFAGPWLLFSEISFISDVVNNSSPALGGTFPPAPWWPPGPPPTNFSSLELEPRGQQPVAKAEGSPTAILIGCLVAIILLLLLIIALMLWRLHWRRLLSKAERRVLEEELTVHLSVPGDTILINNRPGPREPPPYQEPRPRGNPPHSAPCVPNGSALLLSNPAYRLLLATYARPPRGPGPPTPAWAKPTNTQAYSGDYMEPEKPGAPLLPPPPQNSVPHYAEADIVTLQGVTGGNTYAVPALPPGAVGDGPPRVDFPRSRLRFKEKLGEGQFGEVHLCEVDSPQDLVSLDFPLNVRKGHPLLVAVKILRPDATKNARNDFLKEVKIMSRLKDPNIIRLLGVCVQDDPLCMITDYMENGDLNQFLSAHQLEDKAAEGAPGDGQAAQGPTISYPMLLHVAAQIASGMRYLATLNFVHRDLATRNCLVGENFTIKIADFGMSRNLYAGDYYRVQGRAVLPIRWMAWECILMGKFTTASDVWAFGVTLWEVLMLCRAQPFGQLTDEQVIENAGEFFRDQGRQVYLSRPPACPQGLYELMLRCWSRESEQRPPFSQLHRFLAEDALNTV
Chain of Serine/threonine-protein kinase B-raf (Homo sapiens), P15056 [V600E] (P15056 whole entry V600E): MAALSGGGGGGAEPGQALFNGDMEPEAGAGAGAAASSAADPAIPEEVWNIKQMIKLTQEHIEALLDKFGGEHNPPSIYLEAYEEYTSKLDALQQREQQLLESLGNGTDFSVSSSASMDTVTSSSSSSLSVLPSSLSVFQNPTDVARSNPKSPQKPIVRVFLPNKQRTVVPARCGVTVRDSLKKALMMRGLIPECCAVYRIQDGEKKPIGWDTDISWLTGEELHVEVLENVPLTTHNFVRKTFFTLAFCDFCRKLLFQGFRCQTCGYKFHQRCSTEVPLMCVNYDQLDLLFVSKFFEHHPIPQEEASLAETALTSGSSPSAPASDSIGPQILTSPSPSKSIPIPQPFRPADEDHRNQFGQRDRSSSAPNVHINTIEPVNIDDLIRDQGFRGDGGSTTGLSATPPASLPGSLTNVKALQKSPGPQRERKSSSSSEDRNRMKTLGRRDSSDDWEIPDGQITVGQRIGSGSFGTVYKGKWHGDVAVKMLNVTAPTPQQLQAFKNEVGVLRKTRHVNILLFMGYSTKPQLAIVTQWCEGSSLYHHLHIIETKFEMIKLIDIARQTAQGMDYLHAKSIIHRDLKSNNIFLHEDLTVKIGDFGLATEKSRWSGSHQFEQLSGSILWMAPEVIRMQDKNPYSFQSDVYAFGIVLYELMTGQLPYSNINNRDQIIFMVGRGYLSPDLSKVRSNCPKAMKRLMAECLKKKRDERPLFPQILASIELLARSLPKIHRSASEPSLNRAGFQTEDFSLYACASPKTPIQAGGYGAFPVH

In the case of `CCN1CCN(c2cc(C(=O)Nc3cccc(Nc4ccc5c(OC)cccc5n4)c3)cc(C(F)(F)F)c2)CC1`, the Activity (HCT-116 [1]) is reported as 12.5%, the GI50 (RPMI-8226) is reported as 1200 nM and the LC50 (concentration killing 50% of cells) (RPMI-8226) is reported as 15300 nM. For the same compound, the TGI (RPMI-8226) was 5320 nM, the Activity (HCT-116 [2]) was 8.8% and the Activity (Sus scrofa) was “Active”. The GI50 (ACHN) was 1210 nM, the GI50 (NCI-H23) was 3410 nM and the Activity (HCT-116 [3]) was 64.1%. It also gave a viability at 48 h, 3 µM [4] of 82.8%, an inhibition [5] of 60.7% and an Activity (HCT-116 [6]) of 7.4%. For the same compound, the GI50 (NCI-H226) was 2850 nM, the viability at 48 h, 10 µM [7] was 74.1% and the Activity (HCT-116 [8]) was 54.7%. It also gave an inhibition [9] of 94.4%, a GI50 (HCT-15) of 798 nM and an inhibition [10] of 94.5%. It also gave a GI50 (OVCAR-4) of 1570 nM, an Activity (HCT-116 [11]) of 0.3% and an Activity (HCT-116 [12]) of 9.2%. For the same compound, the Activity (HCT-116 [13]) was 12.9%, the GI50 (A498) was 4940 nM and the GI50 (RXF 393) was 918 nM. It also gave a GI50 (HL-60(TB)) of 3820 nM, a GI50 (NCI-H522) of 1010 nM and an Activity (HCT-116 [14]) of 15.5%. For the same compound, the inhibition [15] was 88%, the Activity (HCT-116 [16]) was 20.9% and the viability at 48 h, 1 µM [17] was 81.5%. It also gave an Activity (HCT-116 [18]) of 14.4%, a GI50 (CCRF-CEM) of 758 nM and an LC50 (CCRF-CEM) of 8040 nM. The TGI (CCRF-CEM) was 2060 nM.

In the case of `COc1cccc2nc(Nc3cccc(NC(=O)c4ccc(N5CCN(C)CC5)c(C(F)(F)F)c4)c3)ccc12`, the Activity (HCT-116 [1]) is reported as 4.7%, the GI50 (RPMI-8226) is reported as 1650 nM and the LC50 (concentration killing 50% of cells) (RPMI-8226) is reported as > 50000 nM. It also gave a TGI (RPMI-8226) of 6440 nM, an Activity (HCT-116 [19]) of 15.1% and an Activity (HCT-116 [20]) of 7.3%. For the same compound, the Activity (Sus scrofa) was “Active”, the GI50 (ACHN) was 1530 nM and the Activity (HCT-116 [21]) was 66.6%. For the same compound, the GI50 (NCI-H23) was 2930 nM, the Activity (HCT-116 [22]) was 9.6% and the viability at 48 h, 3 µM [4] was 88.6%. For the same compound, the Activity (HCT-116 [23]) was 69.7%, the GI50 (NCI-H226) was 2260 nM and the viability at 48 h, 10 µM [7] was 77.1%. For the same compound, the GI50 (HCT-15) was 937 nM, the GI50 (OVCAR-4) was 1430 nM and the Activity (HCT-116 [11]) was 2.7%. It also gave an Activity (HCT-116 [24]) of 8.2%, a GI50 (A498) of 1800 nM and a GI50 (RXF 393) of 802 nM. For the same compound, the GI50 (HL-60(TB)) was 1070 nM, the GI50 (NCI-H522) was 1040 nM and the viability at 48 h, 1 µM [17] was 86.5%. The Activity (HCT-116 [25]) was 9.1%, the GI50 (CCRF-CEM) was 1400 nM and the LC50 (CCRF-CEM) was > 50000 nM. The TGI (CCRF-CEM) was > 50000 nM.
